Laboratory results as given in the CheMixHub ionic liquid set.

Assay: xn = mol fraction of the nth substance listed
Settings: 101 kPa

Cc1ncc(C[n+]2csc(CCO)c2C)c(N)n1.Cl.[Cl-] + CCCCCCCCCCCCOS(=O)(=O)[O-].[Na+] + O
electrical conductivity [S/m]
Settings | 308.15 K | 318.15 K
x2 = 0, x1 = 1.8e-07 | 0.00293 | 0.00286
x2 = 0, x1 = 9e-07 | 0.00544 | 0.00608
x2 = 0, x1 = 1.8e-06 | 0.00836 | 0.00964
x2 = 7.35e-06, x1 = 1.8e-07 | 0.00693 | 0.00698
x2 = 7.35e-06, x1 = 9e-07 | 0.00954 | 0.0104
x2 = 7.35e-06, x1 = 1.8e-06 | 0.0129 | 0.0147
x2 = 1.463e-05, x1 = 1.8e-07 | 0.0109 | 0.0112
x2 = 1.463e-05, x1 = 9e-07 | 0.0135 | 0.0145
x2 = 1.463e-05, x1 = 1.8e-06 | 0.0172 | 0.0195
x2 = 2.18e-05, x1 = 1.8e-07 | 0.0147 | 0.0153
x2 = 2.18e-05, x1 = 9e-07 | 0.0175 | 0.0186
x2 = 2.18e-05, x1 = 1.8e-06 | 0.0213 | 0.0241
x2 = 2.901e-05, x1 = 1.8e-07 | 0.0186 | 0.0195
x2 = 2.901e-05, x1 = 9e-07 | 0.0215 | 0.0226
x2 = 2.901e-05, x1 = 1.8e-06 | 0.0254 | 0.0286
x2 = 3.604e-05, x1 = 1.8e-07 | 0.0224 | 0.0235
x2 = 3.604e-05, x1 = 9e-07 | 0.0254 | 0.0266
x2 = 3.604e-05, x1 = 1.8e-06 | 0.0296 | 0.033
x2 = 4.307e-05, x1 = 1.8e-07 | 0.026 | 0.0276
x2 = 4.307e-05, x1 = 9e-07 | 0.0293 | 0.0306
x2 = 4.307e-05, x1 = 1.8e-06 | 0.0336 | 0.0375
x2 = 4.991e-05, x1 = 1.8e-07 | 0.0297 | 0.0315
x2 = 4.991e-05, x1 = 9e-07 | 0.0331 | 0.0346
x2 = 4.991e-05, x1 = 1.8e-06 | 0.0376 | 0.0417
x2 = 5.676e-05, x1 = 1.8e-07 | 0.0333 | 0.0355
x2 = 5.676e-05, x1 = 9e-07 | 0.0367 | 0.0386
x2 = 5.676e-05, x1 = 1.8e-06 | 0.0416 | 0.0458
x2 = 6.361e-05, x1 = 1.8e-07 | 0.037 | 0.0393
x2 = 6.361e-05, x1 = 9e-07 | 0.0404 | 0.0425
x2 = 6.361e-05, x1 = 1.8e-06 | 0.0455 | 0.0498
x2 = 7.027e-05, x1 = 1.8e-07 | 0.0405 | 0.043
x2 = 7.027e-05, x1 = 9e-07 | 0.0441 | 0.0464
x2 = 7.028e-05, x1 = 1.8e-06 | 0.0493 | 0.0537
x2 = 7.694e-05, x1 = 1.8e-07 | 0.044 | 0.0467
x2 = 7.694e-05, x1 = 9e-07 | 0.0477 | 0.0503
x2 = 7.694e-05, x1 = 1.8e-06 | 0.0529 | 0.0576
x2 = 8.361e-05, x1 = 1.8e-07 | 0.0473 | 0.0503
x2 = 8.361e-05, x1 = 9e-07 | 0.0513 | 0.0542
x2 = 8.361e-05, x1 = 1.8e-06 | 0.0564 | 0.0614
x2 = 9.009e-05, x1 = 1.8e-07 | 0.0507 | 0.0539
x2 = 9.009e-05, x1 = 9e-07 | 0.0547 | 0.058
x2 = 9.009e-05, x1 = 1.8e-06 | 0.0597 | 0.0651
x2 = 9.658e-05, x1 = 1.8e-07 | 0.054 | 0.0576
x2 = 9.658e-05, x1 = 9e-07 | 0.0581 | 0.0618
x2 = 9.658e-05, x1 = 1.8e-06 | 0.0627 | 0.0686
x2 = 0.0001031, x1 = 1.8e-07 | 0.0571 | 0.0611
x2 = 0.0001031, x1 = 9e-07 | 0.0612 | 0.0653
x2 = 0.0001031, x1 = 1.8e-06 | 0.0656 | 0.0721
x2 = 0.0001094, x1 = 1.8e-07 | 0.0601 | 0.0643
x2 = 0.0001094, x1 = 9e-07 | 0.0641 | 0.0687
x2 = 0.0001094, x1 = 1.8e-06 | 0.0684 | 0.0754
x2 = 0.0001157, x1 = 1.8e-07 | 0.0629 | 0.0676
x2 = 0.0001157, x1 = 9e-07 | 0.0668 | 0.0719
x2 = 0.0001157, x1 = 1.8e-06 | 0.071 | 0.0784
x2 = 0.000122, x1 = 1.8e-07 | 0.0658 | 0.0707
x2 = 0.000122, x1 = 9e-07 | 0.0696 | 0.075
x2 = 0.000122, x1 = 1.8e-06 | 0.0734 | 0.0813
x2 = 0.0001281, x1 = 1.8e-07 | 0.0684 | 0.0736
x2 = 0.0001281, x1 = 9e-07 | 0.0725 | 0.0777
x2 = 0.0001281, x1 = 1.8e-06 | 0.0755 | 0.0841
x2 = 0.0001342, x1 = 1.8e-07 | 0.0709 | 0.0764
x2 = 0.0001342, x1 = 9e-07 | 0.0746 | 0.0802
x2 = 0.0001342, x1 = 1.8e-06 | 0.0776 | 0.0868
x2 = 0.0001404, x1 = 1.8e-07 | 0.0732 | 0.079
x2 = 0.0001404, x1 = 9e-07 | 0.0766 | 0.0822
x2 = 0.0001404, x1 = 1.8e-06 | 0.0797 | 0.0894
x2 = 0.0001465, x1 = 1.8e-07 | 0.0752 | 0.0816
x2 = 0.0001465, x1 = 9e-07 | 0.0783 | 0.0841
x2 = 0.0001465, x1 = 1.8e-06 | 0.0817 | 0.0919
x2 = 0.0001524, x1 = 1.8e-07 | 0.077 | 0.0838
x2 = 0.0001524, x1 = 9e-07 | 0.08 | 0.086
x2 = 0.0001524, x1 = 1.8e-06 | 0.0836 | 0.0943
x2 = 0.0001584, x1 = 1.8e-07 | 0.0786 | 0.0858
x2 = 0.0001584, x1 = 9e-07 | 0.0816 | 0.0878
x2 = 0.0001584, x1 = 1.8e-06 | 0.0855 | 0.0962
x2 = 0.0001641, x1 = 1.8e-07 | 0.0802 | 0.0876
x2 = 0.0001641, x1 = 9e-07 | 0.0831 | 0.0895
x2 = 0.0001641, x1 = 1.8e-06 | 0.0874 | 0.0981
x2 = 0.0001699, x1 = 1.8e-07 | 0.0817 | 0.0893
x2 = 0.0001699, x1 = 9e-07 | 0.0846 | 0.0911
x2 = 0.0001699, x1 = 1.8e-06 | 0.0893 | 0.1
x2 = 0.0001757, x1 = 1.8e-07 | 0.083 | 0.0909
x2 = 0.0001757, x1 = 9e-07 | 0.086 | 0.0927
x2 = 0.0001757, x1 = 1.8e-06 | 0.091 | 0.102
x2 = 0.0001814, x1 = 1.8e-07 | 0.0843 | 0.0924
x2 = 0.0001814, x1 = 9e-07 | 0.0874 | 0.0943
x2 = 0.0001814, x1 = 1.8e-06 | 0.0928 | 0.104
x2 = 0.000187, x1 = 1.8e-07 | 0.0855 | 0.0939
x2 = 0.000187, x1 = 9e-07 | 0.0887 | 0.0957
x2 = 0.000187, x1 = 1.8e-06 | 0.0946 | 0.106
x2 = 0.0001928, x1 = 1.8e-07 | 0.0867 | 0.0952
x2 = 0.0001928, x1 = 9e-07 | 0.09 | 0.0974
x2 = 0.0001928, x1 = 1.8e-06 | 0.0964 | 0.107
x2 = 0.0001982, x1 = 1.8e-07 | 0.0879 | 0.0966
x2 = 0.0001982, x1 = 9e-07 | 0.0912 | 0.0991
x2 = 0.0001982, x1 = 1.8e-06 | 0.0982 | 0.109
x2 = 0.0002038, x1 = 1.8e-07 | 0.089 | 0.0979
x2 = 0.0002038, x1 = 9e-07 | 0.0924 | 0.101
x2 = 0.0002038, x1 = 1.8e-06 | 0.0997 | 0.111
x2 = 0.0002092, x1 = 1.8e-07 | 0.0901 | 0.0992
x2 = 0.0002092, x1 = 9e-07 | 0.0936 | 0.102
x2 = 0.0002092, x1 = 1.8e-06 | 0.101 | 0.112
x2 = 0.0002147, x1 = 1.8e-07 | 0.0913 | 0.1
x2 = 0.0002148, x1 = 9e-07 | 0.0949 | 0.104
x2 = 0.0002148, x1 = 1.8e-06 | 0.102 | 0.114
x2 = 0.00022, x1 = 1.8e-07 | 0.0925 | 0.102
x2 = 0.00022, x1 = 9e-07 | 0.0961 | 0.105
x2 = 0.00022, x1 = 1.8e-06 | 0.104 | 0.115
x2 = 0.0002254, x1 = 1.8e-07 | 0.0937 | 0.103
x2 = 0.0002254, x1 = 9e-07 | 0.0974 | 0.107
x2 = 0.0002254, x1 = 1.8e-06 | 0.105 | 0.116
x2 = 0.0002306, x1 = 1.8e-07 | 0.0949 | 0.104
x2 = 0.0002306, x1 = 9e-07 | 0.0986 | 0.108
x2 = 0.0002306, x1 = 1.8e-06 | 0.106 | 0.117
x2 = 0.0002358, x1 = 1.8e-07 | 0.0962 | 0.105
x2 = 0.0002358, x1 = 9e-07 | 0.0998 | 0.109
x2 = 0.0002358, x1 = 1.8e-06 | 0.107 | 0.119
x2 = 0.0002411, x1 = 1.8e-07 | 0.0973 | 0.106
x2 = 0.0002411, x1 = 9e-07 | 0.101 | 0.111
x2 = 0.0002411, x1 = 1.8e-06 | 0.108 | 0.12
